Source: patent US4246343A, “Microbial detection and enumeration method and apparatus” (University of Virginia and National Aeronautics & Space …, priority 1979, dated 1981)
Where a name gives a salt, the structure may show the parent alone. Read-outs that look alike come from different tables or passages of the source.

Tests used:
[1] = test system: E. coli (ATCC); assay: Electroanalytically determined MIC, gram-negative bacteria; format: cell-based, Escherichia coli, "Seattle Strain" ATCC 25922; conditions: Escherichia coli
From the text: (§1) Identical lots of media and antimicrobial agents were used in the susceptibility tests performed. The media used were trypticase soy agar (TSA) and TSB from Baltimore Biological Laboratories (BBL), Cockeysville, Maryland. The 12 antimicrobial agents used in the experiments, which were chosen on the basis of their clinical usefulness, were laboratory reference standards including the following antibiotics: penicillin G potassium, caphalothin sodium, tobramycin, vancomycin hydrochloride and streptomycin sulfate obtained from Eli Lilly and Co.; tetracycline and carbenicillin obtained from Pfizer Laboratories; ampicillin and sodium nafcillin from Wyeth Laboratories; kanamycin and methicillin from Bristol Laboratories; gentamicin from Schering.
(§2) The following cultures were obtained from Hoffmann-LaRoche, Inc. and were derived from the American Type Culture Collection (ATCC) organisms as indicated: Escherichia coli, "Seattle Strain" ATCC 25922, Klebsiella pneumoniae ATCC 27736; Pseudomonas aeruginosa, ATCC 9721. These bacteria are gram negative bacteria. The following bacteria are gram positive: Staphylococcus aureus, "Seattle Strain" ATCC 25923; Staphylococcus epiderdimis ATCC 14990; and Streptococcus pyogenes, ATCC 10389. In addition, clinical specimens of these same six organisms were obtained from sensitivity isolates from the University of Virginia Hospital Department of Clinical Pathology Bacteriology Section. These organisms, both pathogenic and non-pathogenic (Staphylococcus epidermidis), were chosen because they are some of the most frequently encountered organisms in clinical isolates.
(§3) Inocula were prepared by making a 100-fold dilution×2 of an overnight TSB culture of the organism to be tested in sterile TSB prewarmed to 35° C. Thus, the total dilution of overnight stock was 10^-4. From the 10^-4 series, 0.3 ml was transferred to a test tube (Falcon, disposable #2057) containing 2.7 ml of TSB if the growth control, or 2.6 ml of TSB plus 0.1 ml of a particular concentration of an appropriate antibiotic to be tested. The antibiotic was weighed on an analytical balance, according to each agent's activity standard, and diluted with sterile distilled water in a volumetric flask to achieve a stock solution of 1000 mcg/ml which was then frozen in small aliquots. Further dilutions as necessary for susceptibility testing were also achieved through the addition of sterile distilled water to this stock concentration. Viable counts were made by plating appropriate dilutions from the 10^-4 series on TSA and counting colonies after 24 hours incubation at 35° C. Viable counts were also made on each microorganism at the time of MDC and again at the end of the 24 hour test period to confirm the minimum inhibitory concentration (MIC).
(§4) The experimental apparatus used in this study to monitor the inhibition of growth due to the addition of antibiotics consisted of test tubes, up to and including 8, size 17×100 mm, each containing a sterilized (by boiling) Pt-SCE combination electrode (Sargent-Welch, S-30101-15), plus TSB, microorganisms, and antibiotic where appropriate, positioned in a 35° C. heating block. Leads from the electrode were connected to a high impedance (greater than 10^8 ohms) potentiometer, or voltage following device, which in turn was connected to a strip chart recorder (Hewlett-Packard type 680M). Microbial growth was measured by an increase in voltage in the negative direction with time as recorded on the strip chart recorder.
(§5) FIG. 12 is a stripchart recording of the antimicrobial response curve of a four channeled expriment involving a clinical specimen of the non-hydrogenproducing, Gram-positive bacteria Staphylococcus epidermidis treated with 0.012, 0.5 and 1.0 mcg/ml of the antibiotic ampicillin as shown in curves B, C and D respectively. […]

[2] = test system: E. coli (clinical); assay: as above; format: cell-based, Escherichia coli; conditions: Escherichia coli
From the text: as §1, §2, §3, §4, §5

[3] = test system: K. pneumoniae (ATCC); assay: Electroanalytically determined MIC / antimicrobial response curve, gram-negative bacteria; format: cell-based, Klebsiella pneumoniae ATCC 27736; conditions: for MIC: Klebsiella pneumoniae
From the text: as §1, §2, §3, §4, §5

[4] = test system: K. pneumoniae (clinical); assay: Electroanalytically determined MIC, gram-negative bacteria; format: cell-based, Klebsiella pneumoniae; conditions: Klebsiella pneumoniae
From the text: as §1, §2, §3
as §4, with “recorder. […]” for “recorder.”

[5] = test system: S. aureus (ATCC); assay: Electroanalytically determined MIC, gram-positive bacteria; format: cell-based, "Seattle Strain" ATCC 25923; conditions: Staphylococcus aureus
From the text: as §1, §2, §3, §4, §5

[6] = test system: S. aureus (clinical); assay: as above; format: cell-based; conditions: Staphylococcus aureus
From the text: as §1, §2, §3, §4, §5

[7] = test system: S. pyogenes (clinical); assay: as above; format: cell-based; conditions: Streptococcus pyogenes, 24 h
From the text: as §1, §2, §3, §4, §5

[8] = test system: S. epidermidis (ATCC); assay: as above; format: cell-based, Staphylococcus epiderdimis ATCC 14990; conditions: Staphylococcus epidermidis
From the text: as §1, §2, §3, §4, §5

[9] = test system: S. epidermidis (clinical); assay: Electroanalytically determined MIC / antimicrobial response curve, gram-positive bacteria; format: cell-based, Staphylococcus epidermidis; conditions: Staphylococcus epidermidis
From the text: as §1, §2, §3, §4, §5

[10] = test system: S. pyogenes (ATCC); assay: Electroanalytically determined MIC, gram-positive bacteria; format: cell-based, ATCC 10389; conditions: Streptococcus pyogenes, 24 h
From the text: as §1, with “Schering. […]” for “Schering.”
as §4, with “Leads from the electrode were connected to a high impedance (greater than 10^8 ohms) potentiometer, or voltage following device, which in turn was connected to a strip chart recorder (Hewlett-Packard type 680M).” left out, “recorder. […]” for “recorder.”

[11] = test system: P. aeruginosa (ATCC); assay: Electroanalytically determined MIC, gram-negative bacteria; format: cell-based, Pseudomonas aeruginosa, ATCC 9721; conditions: Pseudomonas aeruginosa
From the text: as §1, §2, §3, §4, §5

[12] = test system: P. aeruginosa (clinical); assay: as above; format: cell-based, Pseudomonas aeruginosa; conditions: Pseudomonas aeruginosa
From the text: as §1, §2, §3, §4, §5

[13] = P. aeruginosa (ATCC), TSB, 35° C., 24 hour test period, read-out: MIC
[14] = P. aeruginosa (clinical), TSB, 35° C., 24 hour test period, read-out: MIC

MIC [11, 13] [µg/mL] | MIC [12, 14] [µg/mL] | SMILES | MIC ([1]; 24 h) [µg/mL] | MIC ([2]; 24 h) [µg/mL] | MIC ([3]; 24 h) [µg/mL] | MIC ([5]; 24 h) [µg/mL] | MIC ([6]; 24 h) [µg/mL] | MIC ([8]; 24 h) [µg/mL] | MIC ([9]; 24 h) [µg/mL] | other results
 |  | [H]/N=C(/N)N[C@H]1[C@H](O)[C@@H](O)[C@H](O[C@@H]2O[C@@H](C)[C@](O)(C=O)[C@H]2O[C@@H]2O[C@@H](CO)[C@H](O)[C@@H](O)[C@@H]2NC)[C@@H](N/C(N)=N\[H])[C@@H]1O [Strep, streptomycin sulfate] | 9 | 9 | 5 to 6 | 8 | 8 | 4 | 4 to 6 | MIC ([4]; 24 h): 6 µg/mL; MIC [7]: 0.1 µg/mL; MIC [10]: 0.1 µg/mL
64 | 64 | CC1(C)S[C@@H]2[C@H](NC(=O)C(C(=O)O)c3ccccc3)C(=O)N2[C@H]1C(=O)O (stereo partly drawn) [Carb, carbenicillin] |  |  |  |  |  |  |  | MIC ([1]; E. coli (ATCC), TSB, 35° C., 24 hour test period, read-out: MIC): 4 µg/mL; MIC ([2]; E. coli (clinical), TSB, 35° C., 24 hour test period, read-out: MIC): 5 µg/mL; MIC ([3]; K. pneumoniae (ATCC), TSB, 35° C., 24 hour test period, read-out: MIC): > 128 µg/mL; MIC ([4]; K. pneumoniae (clinical), TSB, 35° C., 24 hour test period, read-out: MIC): > 128 µg/mL
4 | 8 | NC[C@H]1O[C@H](O[C@H]2[C@H](O)[C@@H](O[C@H]3O[C@H](CO)[C@@H](O)[C@H](N)[C@H]3O)[C@H](N)C[C@@H]2N)[C@H](N)C[C@@H]1O [Tobra, tobramycin] |  |  |  |  |  |  |  | 
 |  | CC(=O)OCC1=C(C(=O)O)N2C(=O)[C@@H](NC(=O)Cc3cccs3)[C@H]2SC1 [Ceph, cephalothin] | 8 | 9 | 1 | 0.15 to 0.2 | 0.8 to 1.6 | 0.1 | 0.5 to 1 | growth inhibition (antimicrobial response curve, FIG. 13) ([3]; K. pneumoniae ATCC, 0.3, 0.4, 0.5, 1.0 and 2.0 mcg/ml): increasingly inhibited; MIC ([11]; 24 h): > 360 µg/mL; MIC ([12]; 24 h): > 360 µg/mL
 |  | CC1(C)S[C@@H]2[C@H](NC(=O)Cc3ccccc3)C(=O)N2[C@H]1C(=O)O [Pen G, penicillin G potassium] |  |  |  | 0.05 | 0.05 | 0.08 to 0.1 | 0.1 | 
 |  | CCOc1ccc2ccccc2c1C(=O)N[C@@H]1C(=O)N2[C@@H]1SC(C)(C)[C@@H]2C(=O)O [Naf, sodium nafcillin] |  |  |  |  |  |  |  | MIC ([5]; S. aureus (ATCC), TSB, 35° C., 24 hour test period, read-out: MIC): 0.5 µg/mL; MIC ([6]; S. aureus (clinical), TSB, 35° C., 24 hour test period, read-out: MIC): 0.5 µg/mL; MIC ([8]; S. epidermidis (ATCC), TSB, 35° C., 24 hour test period, read-out: MIC): 0.5 to 1 µg/mL; MIC ([9]; S. epidermidis (clinical), TSB, 35° C., 24 hour test period, read-out: MIC): 0.5 to 1 µg/mL
